Measured values published in the NIST ThermoML archive (doi:10.1021/je700152c).
Numbers after ± are expanded uncertainties.

Assay: molar heat capacity at saturation pressure; xn = mol fraction of the nth substance listed

SMILES: CCCCn1cc[n+](C)c1.Cc1ccc(S(=O)(=O)[O-])cc1 [1-butyl-3-methylimidazolium tosylate] + O
- molar heat capacity (142.92 K, Crystal, x1 = 0.3): 83.64 ± 1.2 J/K/mol
- molar heat capacity (143.53 K, Metastable crystal, x1 = 0.83): 208.04 ± 2.1 J/K/mol
- molar heat capacity (143.99 K, Crystal, x1 = 0.83): 206.74 ± 2.1 J/K/mol
- molar heat capacity (145.47 K, Metastable crystal, x1 = 0.83): 210.65 ± 2.1 J/K/mol
- molar heat capacity (145.65 K, Crystal, x1 = 0.3): 84.8 ± 1.2 J/K/mol
- molar heat capacity (145.93 K, Crystal, x1 = 0.83): 214.56 ± 2.1 J/K/mol
- molar heat capacity (147.41 K, Metastable crystal, x1 = 0.83): 213 ± 2.1 J/K/mol
- molar heat capacity (147.86 K, Crystal, x1 = 0.83): 217.43 ± 2.1 J/K/mol
- molar heat capacity (148.38 K, Crystal, x1 = 0.3): 85.96 ± 1.2 J/K/mol
- molar heat capacity (149.35 K, Metastable crystal, x1 = 0.83): 215.34 ± 2.1 J/K/mol
- molar heat capacity (149.8 K, Crystal, x1 = 0.83): 211.69 ± 2.1 J/K/mol
- molar heat capacity (151.11 K, Crystal, x1 = 0.3): 87.13 ± 1.2 J/K/mol
- molar heat capacity (151.28 K, Metastable crystal, x1 = 0.83): 217.95 ± 2.1 J/K/mol
- molar heat capacity (151.76 K, Crystal, x1 = 0.83): 207.26 ± 2.1 J/K/mol
- molar heat capacity (153.22 K, Metastable crystal, x1 = 0.83): 220.3 ± 2.3 J/K/mol
- molar heat capacity (153.74 K, Crystal, x1 = 0.83): 206.22 ± 2.1 J/K/mol
- molar heat capacity (153.84 K, Crystal, x1 = 0.3): 88.29 ± 1.2 J/K/mol
- molar heat capacity (155.15 K, Metastable crystal, x1 = 0.83): 222.64 ± 2.3 J/K/mol
- molar heat capacity (155.72 K, Crystal, x1 = 0.83): 206.74 ± 2.1 J/K/mol
- molar heat capacity (156.57 K, Crystal, x1 = 0.3): 89.45 ± 1.2 J/K/mol
- molar heat capacity (157.08 K, Metastable crystal, x1 = 0.83): 224.99 ± 2.3 J/K/mol
- molar heat capacity (157.71 K, Crystal, x1 = 0.83): 207.78 ± 2.1 J/K/mol
- molar heat capacity (159.01 K, Metastable crystal, x1 = 0.83): 227.6 ± 2.3 J/K/mol
- molar heat capacity (159.29 K, Crystal, x1 = 0.3): 90.61 ± 1.2 J/K/mol
- molar heat capacity (159.7 K, Crystal, x1 = 0.83): 209.09 ± 2.1 J/K/mol
- molar heat capacity (160.94 K, Metastable crystal, x1 = 0.83): 229.94 ± 2.3 J/K/mol
- molar heat capacity (161.69 K, Crystal, x1 = 0.83): 210.65 ± 2.1 J/K/mol
- molar heat capacity (161.79 K, Crystal, x1 = 0.37): 108.28 ± 1.3 J/K/mol
- molar heat capacity (162.02 K, Crystal, x1 = 0.3): 91.78 ± 1.2 J/K/mol
- molar heat capacity (162.86 K, Metastable crystal, x1 = 0.83): 232.29 ± 2.3 J/K/mol
- molar heat capacity (163.68 K, Crystal, x1 = 0.83): 212.47 ± 2.1 J/K/mol
- molar heat capacity (164.74 K, Crystal, x1 = 0.3): 92.94 ± 1.2 J/K/mol
- molar heat capacity (164.78 K, Metastable crystal, x1 = 0.83): 234.63 ± 2.3 J/K/mol
- molar heat capacity (164.91 K, Crystal, x1 = 0.37): 109.92 ± 1.4 J/K/mol
- molar heat capacity (165.67 K, Crystal, x1 = 0.83): 214.3 ± 2.1 J/K/mol
- molar heat capacity (166.7 K, Metastable crystal, x1 = 0.83): 236.72 ± 2.3 J/K/mol
- molar heat capacity (167.46 K, Crystal, x1 = 0.3): 94.21 ± 1.2 J/K/mol
- molar heat capacity (167.65 K, Crystal, x1 = 0.83): 215.86 ± 2.1 J/K/mol
- molar heat capacity (167.87 K, Crystal, x1 = 0.37): 111.44 ± 1.4 J/K/mol
- molar heat capacity (168.62 K, Metastable crystal, x1 = 0.83): 239.07 ± 2.3 J/K/mol
- molar heat capacity (169.64 K, Crystal, x1 = 0.83): 217.69 ± 2.1 J/K/mol
- molar heat capacity (170.18 K, Crystal, x1 = 0.3): 95.37 ± 1.2 J/K/mol
- molar heat capacity (170.53 K, Metastable crystal, x1 = 0.83): 240.89 ± 2.3 J/K/mol
- molar heat capacity (170.82 K, Crystal, x1 = 0.37): 112.95 ± 1.4 J/K/mol
- molar heat capacity (171.63 K, Crystal, x1 = 0.83): 219.51 ± 2.1 J/K/mol
- molar heat capacity (172.45 K, Metastable crystal, x1 = 0.83): 243.24 ± 2.3 J/K/mol
- molar heat capacity (172.9 K, Crystal, x1 = 0.3): 96.64 ± 1.3 J/K/mol
- molar heat capacity (173.61 K, Crystal, x1 = 0.83): 221.34 ± 2.3 J/K/mol
- molar heat capacity (173.77 K, Crystal, x1 = 0.37): 114.59 ± 1.4 J/K/mol
- molar heat capacity (174.36 K, Metastable crystal, x1 = 0.83): 245.32 ± 2.3 J/K/mol
- molar heat capacity (175.6 K, Crystal, x1 = 0.83): 223.42 ± 2.3 J/K/mol
- molar heat capacity (175.61 K, Crystal, x1 = 0.3): 97.91 ± 1.3 J/K/mol
- molar heat capacity (176.27 K, Metastable crystal, x1 = 0.83): 247.15 ± 2.3 J/K/mol
- molar heat capacity (176.72 K, Crystal, x1 = 0.37): 116.23 ± 1.4 J/K/mol
- molar heat capacity (177.58 K, Crystal, x1 = 0.83): 224.99 ± 2.3 J/K/mol
- molar heat capacity (178.18 K, Metastable crystal, x1 = 0.83): 248.97 ± 2.3 J/K/mol
- molar heat capacity (178.32 K, Crystal, x1 = 0.3): 99.28 ± 1.3 J/K/mol
- molar heat capacity (179.56 K, Crystal, x1 = 0.83): 227.07 ± 2.3 J/K/mol
- molar heat capacity (179.67 K, Crystal, x1 = 0.37): 118.38 ± 1.4 J/K/mol
- molar heat capacity (180.09 K, Metastable crystal, x1 = 0.83): 250.8 ± 2.3 J/K/mol
- molar heat capacity (181.02 K, Crystal, x1 = 0.3): 101.4 ± 1.3 J/K/mol
- molar heat capacity (181.54 K, Crystal, x1 = 0.83): 228.9 ± 2.3 J/K/mol
- molar heat capacity (181.99 K, Metastable crystal, x1 = 0.83): 252.62 ± 2.6 J/K/mol
- molar heat capacity (182.6 K, Crystal, x1 = 0.37): 121.41 ± 1.4 J/K/mol
- molar heat capacity (183.52 K, Crystal, x1 = 0.83): 230.72 ± 2.3 J/K/mol
- molar heat capacity (183.7 K, Crystal, x1 = 0.3): 104.68 ± 1.3 J/K/mol
- molar heat capacity (183.9 K, Metastable crystal, x1 = 0.83): 254.19 ± 2.6 J/K/mol
- molar heat capacity (185.5 K, Crystal, x1 = 0.37): 126.71 ± 1.5 J/K/mol
- molar heat capacity (185.5 K, Crystal, x1 = 0.83): 232.81 ± 2.3 J/K/mol
- molar heat capacity (185.8 K, Metastable crystal, x1 = 0.83): 256.01 ± 2.6 J/K/mol
- molar heat capacity (186.36 K, Crystal, x1 = 0.3): 107.53 ± 1.3 J/K/mol
- molar heat capacity (187.47 K, Crystal, x1 = 0.83): 234.9 ± 2.3 J/K/mol
